≈ marks a conversion by molar mass, not a printed value.
Tests used:
Type in all cases: functional
Streptococcus pyogenes = test: Antibacterial activity against Streptococcus pyogenes MTCC 442 assessed as zone of inhibition at 100 ug/ml by disc diffusion method; conditions: read-out: IZ
Pseudomonas aeruginosa [1] = test: Antibacterial activity against Pseudomonas aeruginosa MTCC 424 assessed as zone of inhibition at 100 ug/ml by disc diffusion method; conditions: read-out: IZ
Staphylococcus aureus [2] = test: Antibacterial activity against Staphylococcus aureus MTCC 96 assessed as zone of inhibition at 100 ug/ml by disc diffusion method; conditions: read-out: IZ
Escherichia coli [3] = test: Antibacterial activity against Escherichia coli MTCC 443 assessed as zone of inhibition at 100 ug/ml by disc diffusion method; conditions: read-out: IZ
Bacillus subtilis [4] = test: Antibacterial activity against Bacillus subtilis NCIM 2439 assessed as zone of inhibition at 1 ug/ml after 24 hrs by agar diffusion method; conditions: NCIM 2439, 24 h, read-out: IZ
Staphylococcus aureus [5] = test: Antibacterial activity against Staphylococcus aureus NCIM 2079 assessed as zone of inhibition at 1 ug/ml after 24 hrs by agar diffusion method; conditions: NCIM 2079, 24 h, read-out: IZ
Escherichia coli [6] = test: Antibacterial activity against Escherichia coli NCIM 2064 assessed as zone of inhibition at 1 ug/ml after 24 hrs by agar diffusion method; conditions: NCIM 2064, 24 h, read-out: IZ
Pseudomonas aeruginosa [7] = test: Antibacterial activity against Pseudomonas aeruginosa NCIB 8650 assessed as zone of inhibition at 1 ug/ml after 24 hrs by agar diffusion method; conditions: NCIB 8650, 24 h, read-out: IZ
Pseudomonas aeruginosa [8] = test: Antibacterial activity against Pseudomonas aeruginosa by broth dilution method
Escherichia coli [9] = test: Antibacterial activity against Escherichia coli by broth dilution method
Escherichia coli [10] = test: Antibacterial activity against Escherichia coli MTCC 1559 after 24 hrs by broth dilution method; conditions: MTCC 1559, 24 h
Bacillus subtilis [11] = test: Antibacterial activity against Bacillus subtilis MTCC 1134 after 24 hrs by broth dilution method; conditions: MTCC 1134, 24 h
Pseudomonas aeruginosa [12] = test: Antibacterial activity against Pseudomonas aeruginosa MTCC 1034 after 24 hrs by broth dilution method; conditions: MTCC 1034, 24 h
Staphylococcus aureus [13] = test: Antibacterial activity against Staphylococcus aureus assessed as zone of inhibition at 1 mg/ml after 32 hrs by agar-well diffusion method; conditions: read-out: IZ
Escherichia coli [14] = test: Antibacterial activity against Escherichia coli assessed as zone of inhibition at 1 mg/ml after 32 hrs by agar-well diffusion method; conditions: read-out: IZ
Pseudomonas aeruginosa [15] = test: Antibacterial activity against Pseudomonas aeruginosa assessed as zone of inhibition at 1 mg/ml after 32 hrs by agar-well diffusion method; conditions: read-out: IZ
Klebsiella pneumoniae = test: Antibacterial activity against Klebsiella pneumoniae assessed as zone of inhibition at 1 mg/ml after 32 hrs by agar-well diffusion method; conditions: read-out: IZ

## Cc1cc(NS(C)(=O)=O)c2oc(COC(=O)NCc3ccccc3)cc2c1
Streptococcus pyogenes
  zone of inhibition at 100 µg/mL: 19 to 28 mm
Pseudomonas aeruginosa [1]
  zone of inhibition at 100 µg/mL: 19 to 28 mm
Staphylococcus aureus [2]
  zone of inhibition at 100 µg/mL: 19 to 28 mm
Escherichia coli [3]
  zone of inhibition at 100 µg/mL: 19 to 28 mm

## Cc1c(-c2cc(C(=O)NN)nn2-c2ccccc2)oc2c(Cl)cc(Cl)cc12
Bacillus subtilis [4]
  zone of inhibition at 1 µg/mL: 9 to 30 mm
Staphylococcus aureus [5]
  zone of inhibition at 1 µg/mL: 9 to 30 mm
Escherichia coli [6]
  zone of inhibition at 1 µg/mL: 9 to 30 mm
Pseudomonas aeruginosa [7]
  zone of inhibition at 1 µg/mL: 9 to 30 mm

## COc1ccc2occ(-c3cc4cc(Br)ccc4oc3=O)c2c1
Pseudomonas aeruginosa [8]
  MIC: 6.25 to 100 mg/L (≈ 16.8 to 269 µM)
Escherichia coli [9]
  MIC: 6.25 to 100 mg/L (≈ 16.8 to 269 µM)

## COC(=O)c1cc(-c2cc3ccccc3o2)[nH]n1
Bacillus subtilis [4]
  zone of inhibition at 1 µg/mL: 9 to 30 mm
Staphylococcus aureus [5]
  zone of inhibition at 1 µg/mL: 9 to 30 mm
Escherichia coli [6]
  zone of inhibition at 1 µg/mL: 9 to 30 mm
Pseudomonas aeruginosa [7]
  zone of inhibition at 1 µg/mL: 9 to 30 mm

## Cc1ccc(-c2cc(-c3cc4cc(Br)ccc4o3)nc(O)n2)s1
Escherichia coli [10]
  MIC: 4.32 to 18.4 mg/L (≈ 11.2 to 47.6 µM)
Bacillus subtilis [11]
  MIC: 4.32 to 18.4 mg/L (≈ 11.2 to 47.6 µM)
Pseudomonas aeruginosa [12]
  MIC: 4.32 to 18.4 mg/L (≈ 11.2 to 47.6 µM)

## Nc1nc(-c2cc3ccccc3o2)cc(-c2cccs2)n1
Escherichia coli [10]
  MIC: 4.32 to 18.4 mg/L (≈ 14.7 to 62.9 µM)
Bacillus subtilis [11]
  MIC: 4.32 to 18.4 mg/L (≈ 14.7 to 62.9 µM)
Pseudomonas aeruginosa [12]
  MIC: 4.32 to 18.4 mg/L (≈ 14.7 to 62.9 µM)

## COC(=O)c1cc(-c2oc3c(Cl)cc(Cl)cc3c2C)n(-c2ccccc2)n1
Bacillus subtilis [4]
  zone of inhibition at 1 µg/mL: 9 to 30 mm
Staphylococcus aureus [5]
  zone of inhibition at 1 µg/mL: 9 to 30 mm
Escherichia coli [6]
  zone of inhibition at 1 µg/mL: 9 to 30 mm
Pseudomonas aeruginosa [7]
  zone of inhibition at 1 µg/mL: 9 to 30 mm

## O=c1oc2ccc(Br)cc2cc1-c1coc2ccc3ccccc3c12
Pseudomonas aeruginosa [8]
  MIC: 6.25 to 100 mg/L (≈ 16 to 256 µM)
Escherichia coli [9]
  MIC: 6.25 to 100 mg/L (≈ 16 to 256 µM)

## Brc1ccc2oc(-c3cn4c(-c5ccccc5)csc4n3)cc2c1
Staphylococcus aureus [13]
  zone of inhibition at 1000 µg/mL: 15 to 20 mm
Escherichia coli [14]
  zone of inhibition at 1000 µg/mL: 15 to 20 mm
Pseudomonas aeruginosa [15]
  zone of inhibition at 1000 µg/mL: 15 to 20 mm
Klebsiella pneumoniae
  zone of inhibition at 1000 µg/mL: 15 to 20 mm

## COC(=O)c1cc(-c2cc3ccccc3o2)n(-c2ccccc2)n1
Bacillus subtilis [4]
  zone of inhibition at 1 µg/mL: 9 to 30 mm
Staphylococcus aureus [5]
  zone of inhibition at 1 µg/mL: 9 to 30 mm
Escherichia coli [6]
  zone of inhibition at 1 µg/mL: 9 to 30 mm
Pseudomonas aeruginosa [7]
  zone of inhibition at 1 µg/mL: 9 to 30 mm

## Oc1nc(-c2cc3ccccc3o2)cc(-c2cccs2)n1
Escherichia coli [10]
  MIC: 4.32 to 18.4 mg/L (≈ 14.7 to 62.7 µM)
Bacillus subtilis [11]
  MIC: 4.32 to 18.4 mg/L (≈ 14.7 to 62.7 µM)
Pseudomonas aeruginosa [12]
  MIC: 4.32 to 18.4 mg/L (≈ 14.7 to 62.7 µM)

## COC(=O)c1cc(-c2cc3cc(Br)ccc3o2)n(C(N)=O)n1
Bacillus subtilis [4]
  zone of inhibition at 1 µg/mL: 9 to 30 mm
Staphylococcus aureus [5]
  zone of inhibition at 1 µg/mL: 9 to 30 mm
Escherichia coli [6]
  zone of inhibition at 1 µg/mL: 9 to 30 mm
Pseudomonas aeruginosa [7]
  zone of inhibition at 1 µg/mL: 9 to 30 mm

## NNC(=O)c1cc(-c2cc3ccccc3o2)n(-c2ccccc2)n1
Bacillus subtilis [4]
  zone of inhibition at 1 µg/mL: 9 to 30 mm
Staphylococcus aureus [5]
  zone of inhibition at 1 µg/mL: 9 to 30 mm
Escherichia coli [6]
  zone of inhibition at 1 µg/mL: 9 to 30 mm
Pseudomonas aeruginosa [7]
  zone of inhibition at 1 µg/mL: 9 to 30 mm

## Cc1ccc(-c2csc3nc(-c4cc5cc(Br)ccc5o4)cn23)cc1
Staphylococcus aureus [13]
  zone of inhibition at 1000 µg/mL: 6 to 23 mm
Escherichia coli [14]
  zone of inhibition at 1000 µg/mL: 6 to 23 mm
Pseudomonas aeruginosa [15]
  zone of inhibition at 1000 µg/mL: 6 to 23 mm
Klebsiella pneumoniae
  zone of inhibition at 1000 µg/mL: 6 to 23 mm

## COC(=O)c1cc(-c2oc3c(Cl)cc(Cl)cc3c2C)[nH]n1
Bacillus subtilis [4]
  zone of inhibition at 1 µg/mL: 19 to 30 mm
Staphylococcus aureus [5]
  zone of inhibition at 1 µg/mL: 19 to 30 mm
Escherichia coli [6]
  zone of inhibition at 1 µg/mL: 19 to 30 mm
Pseudomonas aeruginosa [7]
  zone of inhibition at 1 µg/mL: 19 to 30 mm

## Brc1ccc2oc(-c3cn4c(-c5cc6cc(Br)ccc6o5)csc4n3)cc2c1
Staphylococcus aureus [13]
  zone of inhibition at 1000 µg/mL: 6 to 23 mm
Escherichia coli [14]
  zone of inhibition at 1000 µg/mL: 6 to 23 mm
Pseudomonas aeruginosa [15]
  zone of inhibition at 1000 µg/mL: 6 to 23 mm
Klebsiella pneumoniae
  zone of inhibition at 1000 µg/mL: 6 to 23 mm

## COc1ccc2occ(-c3cc4ccccc4oc3=O)c2c1
Pseudomonas aeruginosa [8]
  MIC: 6.25 to 100 mg/L (≈ 21.4 to 342 µM)
Escherichia coli [9]
  MIC: 6.25 to 100 mg/L (≈ 21.4 to 342 µM)

## Cc1ccc(-c2cc(-c3cc4cc(Br)ccc4o3)nc(S)n2)s1
Escherichia coli [10]
  MIC: 4.32 to 18.4 mg/L (≈ 10.7 to 45.7 µM)
Bacillus subtilis [11]
  MIC: 4.32 to 18.4 mg/L (≈ 10.7 to 45.7 µM)
Pseudomonas aeruginosa [12]
  MIC: 4.32 to 18.4 mg/L (≈ 10.7 to 45.7 µM)

## Sc1nc(-c2cc3ccccc3o2)cc(-c2cccs2)n1
Escherichia coli [10]
  MIC: 4.32 to 18.4 mg/L (≈ 13.9 to 59.4 µM)
Bacillus subtilis [11]
  MIC: 4.32 to 18.4 mg/L (≈ 13.9 to 59.4 µM)
Pseudomonas aeruginosa [12]
  MIC: 4.32 to 18.4 mg/L (≈ 13.9 to 59.4 µM)

## Brc1ccc2oc(-c3csc4nc(-c5cc6ccccc6o5)cn34)cc2c1
Staphylococcus aureus [13]
  zone of inhibition at 1000 µg/mL: 6 to 23 mm
Escherichia coli [14]
  zone of inhibition at 1000 µg/mL: 6 to 23 mm
Pseudomonas aeruginosa [15]
  zone of inhibition at 1000 µg/mL: 6 to 23 mm
Klebsiella pneumoniae
  zone of inhibition at 1000 µg/mL: 6 to 23 mm

## O=c1oc2ccc(Br)cc2cc1-c1coc2c1ccc1ccccc12
Pseudomonas aeruginosa [8]
  MIC: 6.25 to 100 mg/L (≈ 16 to 256 µM)
Escherichia coli [9]
  MIC: 6.25 to 100 mg/L (≈ 16 to 256 µM)

## COC(=O)c1cc(-c2oc3c(Cl)cc(Cl)cc3c2C)n(C(N)=O)n1
Bacillus subtilis [4]
  zone of inhibition at 1 µg/mL: 9 to 30 mm
Staphylococcus aureus [5]
  zone of inhibition at 1 µg/mL: 9 to 30 mm
Escherichia coli [6]
  zone of inhibition at 1 µg/mL: 9 to 30 mm
Pseudomonas aeruginosa [7]
  zone of inhibition at 1 µg/mL: 9 to 30 mm

## c1ccc(-c2csc3nc(-c4cc5ccccc5o4)cn23)cc1
Staphylococcus aureus [13]
  zone of inhibition at 1000 µg/mL: 6 to 23 mm
Escherichia coli [14]
  zone of inhibition at 1000 µg/mL: 6 to 23 mm
Pseudomonas aeruginosa [15]
  zone of inhibition at 1000 µg/mL: 6 to 23 mm
Klebsiella pneumoniae
  zone of inhibition at 1000 µg/mL: 6 to 23 mm

## O=c1oc2ccccc2cc1-c1coc2ccc3ccccc3c12
Pseudomonas aeruginosa [8]
  MIC: 6.25 to 100 mg/L (≈ 20 to 320 µM)
Escherichia coli [9]
  MIC: 6.25 to 100 mg/L (≈ 20 to 320 µM)

## Fc1ccc(-c2csc3nc(-c4cc5cc(Br)ccc5o4)cn23)cc1
Staphylococcus aureus [13]
  zone of inhibition at 1000 µg/mL: 6 to 23 mm
Escherichia coli [14]
  zone of inhibition at 1000 µg/mL: 6 to 23 mm
Pseudomonas aeruginosa [15]
  zone of inhibition at 1000 µg/mL: 6 to 23 mm
Klebsiella pneumoniae
  zone of inhibition at 1000 µg/mL: 6 to 23 mm

Source: ChEMBL document CHEMBL4382229, “Benzofuran derivatives and their anti-tubercular, anti-bacterial activities” (Eur J Med Chem, 2019)
